Assays:
[1] = test system: HeLa cell anion exchange fraction (F1), trouase; assay: Relative cleavage by HeLa cell anion exchange fraction (F1) versus Suc-βAla-Leu-Ala-Leu standard; assay type: biochemical, human
Protocol: Thirty billion commercially produced HeLa Cells (human cervical carcinoma, Computer Cell Culture Ceizter, Seneffe, Belgium) were homogenized with a sonicator and with a Dounce homogenizer in 108 mL of aqueous lysis solution. The lysis solution contained 0.02% w/v Triton X-100, 0.04% w/v sodium azide, and a cocktail of protease inhibitors (2 tablets/50 mL Complete™, EDTA-free tablets, Roche Molecular Biochemicals). The cell homogenate was centrifuged 30 minutes at 4° C. at 5000×g and the pellet was homogenized in a second 108 mL of lysis solution using a Dounce homogenizer and centrifuged as before. The supernatants were combined and centrifuged for 90 min at 145,000×g at 4° C.
A portion of the ultracentrifugation supernatant was diluted 2-fold with a 20 mM triethanolamine-HCl pH 7.2 buffer containing 0.01% (w/v) Triton X-100 and 0.02% (w/v) sodium azide (equilibration buffer). Thirty mL of the resulting solution, corresponding to approximately 180 mg of protein, was loaded at 4° C. on a 2.6×9.4 cm Source™ 15Q (Amersham Pharmacia Biotech) low pressure anion exchange chromatography column (1 ml/minute). The column was then washed with 250 ml of the equilibration buffer at a flow rate of 1 mL/minute. Proteins were eluted in a NaCl linear concentration gradient (0–0.5 M in the equilibration buffer, total volume of the gradient was 1000 ml) at a flow rate of 3 ml/minute. Two-minute fractions were collected and used for enzyme activity determination using βAla-Leu-Ala-Leu-Dox as the substrate. Its transformation into Ala-Leu-Dox was quantified by reverse phase high performance liquid chromatography utilizing fluorescence detection of the anthracycline moiety. The fractions containing the highest activity levels were pooled (fractions #43–46; ˜0.13 M NaCl), supplemented with protease inhibitors (Complete™, EDTA-free tablets, Roche Molecular Biochemicals), and stored as aliquots at −80° C.
Test compounds were incubated for 2 hr at 37° C. at a concentration of 12.5 μg/mL with HeLa cell anion exchange fraction (F1), as prepared in Example 1(c). Following incubation, three volumes of acetonitrile were added to stop the reaction and remove protein from the mixture. The sample was centrifuged at 18,000 g for 5 minutes and 100 μL of supernatant was mixed with 300 μL of water prior to analysis by HPLC. For HPLC analysis 50 μL of sample was injected on a 4.6×50 mm 2μ TSK Super-ODS chromatography column at 40° C. and eluted with a 3 minute linear gradient from 26% to 68% acetonitrile in aqueous 20 mM ammonium acetate pH 4.5 buffer at 2 mL/min. Detection was by fluorescence using an excitation wavelength of 235 nm and an emission wavelength of 560 nm.
the amount of cleavage of each test compound was compared to the amount of a standard Suc-βAla-Leu-Ala-Leu-therapeutic agent conjugate cleaved by F1 under the same conditions. The therapeutic agent in the standard (Dox or Dnr) was the same as in the test compound. Table 3 provides the relative cleavage rates of several tripeptide prodrugs.

[2] = Repeat-dose tolerability / repeat dose MTD in tumor bearing mice; assay type: in vivo, mouse; details: mouse, in vivo, intravenous, five doses, based on efficacy study in Example 12
Source text: (§1) In one study, one animal in each dose group (n=8) was terminated as a possible drug-related toxicity death late in the study, at Days 58 and 57 in the low and high dose-groups respectively. The safety of the compound was evidenced by little body weight loss in either the high or low dose groups (less than 5% of the initial weight) during the 60-day observation period, in surviving animals (FIG. 14). In the other study, both the high and low dose were well tolerated. Only one animal in the high dose group (n=10) had over 15% of body weight loss at the end of the study (Day 61).
(§2) In repeat-dose studies in tumor bearing mice, groups of ten mice were dosed with various amounts of prodrug for a total of five doses at either five day or 1 week intervals. […] Thus, the prodrugs permit a much greater amount of therapeutic agent to be delivered to the body as a whole and thus to the vicinity of the target cell.

tumor-bearing nude mice = assay: as above; assay type: in vivo, mouse
Source text: as §1, §2

[3] = test system: purified Porcine Kidney CD10; assay: Hydrolysis by purified CD10; assay type: biochemical
Protocol: Reaction products were analyzed by HPLC with fluorescence detection. Rates were essentially linear over the incubation period. The observed product was Leu-doxorubicin.

BALL-1 cells (CD10neg) = assay type: cell-based, human
Protocol: (§3) In addition to LNCaP, a number of B-cell lines, such as Ramos and Namalwa cells express CD10 (CD10^pos cells).
(§4) Suspension cells, BALL-1, Ramos and Namalwa cells were cultured in RPMI media containing 10% heat inactivated fetal calf serum (FCS). On the day of the study, the cells were collected, washed and resuspended at a concentration of 0.5×10^6 cells/ml in RPMI containing 10% FCS. 100 μl of cell suspension was added to 96 well plates. […] Finally 10 μl of a 100 μCi/ml ^3H-thymidine was added per well and the plates were incubated for 24 hours. The plates were harvested using a 96 well Harvester (Packard Instruments) and counted on a Packard Top Count counter. Four parameter logistic curves were fitted to the ^3H-thymidine incorporation as a function of drug molarity using Prism software to determine IC50 values.

Ramos cells (CD10pos) = assay type: cell-based, human; details: 24 hours, 3H-thymidine
Protocol: as §3, §4

in vivo = details: female, ICR, mouse, iv, 100 umol/kg
Protocol: Plasma was obtained from three individual animals in each group at 5 minutes, 1, 2, 4, or 6 hr.

For COc1cccc2c1C(=O)c1c(O)c3c(c(O)c1C2=O)C[C@@](O)(C(=O)CO)C[C@@H]3O[C@H]1C[C@H](NC(=O)[C@H](CC(C)C)NC(=O)[C@H](C)NC(=O)[C@H](CC(C)C)NC(=O)CCC(=O)O)[C@H](O)[C@H](C)O1 [Suc-Leu-Ala-Leu-Dox], the “Relative Cleavage %” value ([1]; 2 hr at 37° C., 12.5 μg/mL, HeLa F1, relative to Suc-βAla-Leu-Ala-Leu-(Dox or Dnr) standard) was 62%, the “Relative Rate of Cleavage” value ([1]; relative to Suc-βAla-Leu-Ala-Leu-Dox = 100 (Tables 11 and 12)) was 62 and the MTD at 60 day [2] was ~52 mg/kg. For the same compound, the “acute signs of toxicity following repeat administration” value (tumor-bearing nude mice; 52 or 63 mg/kg every 5 days for five doses) was “no acute signs of toxicity”, the “body weight loss, % of the initial weight” value (tumor-bearing nude mice; 52 or 63 mg/kg intravenously every 5 days for five doses, 60-day observation) was “less than 5%” and the “Optimal Efficacy Repeat Dose (mg/kg), value in parentheses (doxorubicin equivalent dose)” value (tumor-bearing nude mice; Table 11, five doses at five day or 1 week intervals) was 38 mg/kg. The “Optimal Efficacy Repeat Dose” value (tumor-bearing nude mice; Table 11, five doses at five day or 1 week intervals, tumor bearing mice, 60 days) was 63 mg/kg, the “% hydrolysis/10 hr” value ([3]; 12.5 μg/mL, 37° C., pH 7.4, up to 10 hr) was 8.3% and the “Fraction hydrolyzed relative to standard” value ([3]; standard Suc-βAla-Leu-Ala-Leu-Dox) was 0.75. For the same compound, the “fold difference between CD10pos and CD10neg cells” value (BALL-1 cells (CD10neg)) was 30-35 fold, the IC50 (BALL-1 cells (CD10neg); Ball-1 (CD10neg), 24 hours, 3H-thymidine) was 78.7 µM and the “Ratio Ball-1:Namalwa” value (BALL-1 cells (CD10neg); ratio of IC50) was 35. For the same compound, the “Ratio Ball-1:Ramos” value (BALL-1 cells (CD10neg); ratio of IC50) was 30, the IC50 (Ramos cells (CD10pos)) was 2.63 µM and the AUC (in vivo) was 634 µM·h.

Source: patent publication US7214663B2, “Tripeptide prodrug compounds” (Medarex, Inc., priority 2001, dated 2007)
